From publication PMC3681492, “Identification and Characterization of a Novel Chemotype MEK Inhibitor Able to Alter the Phosphorylation State of MEK1/2” (Oncotarget, 2012)
One block for each molecule: values may come before it.

Legend:
[1] = system: MEK1/2; assay: Competitive pull-down with JTP-74100-conjugated resin from HT-29 cytosolic fraction; assay type: binding, human; conditions: 46-kDa band on SDS-PAGE
[2] = system: HT-29 cells; assay: Growth inhibition of HT-29 cells by [3H]-TdR incorporation; assay type: cell-based; conditions: Homo sapiens, [3H]-TdR incorporation during last 6 h of 3-day culture, read-out: growth inhibitory activity (IC50)
Procedure: HT-29 cells were cultured in McCoy's 5a medium supplemented with 10% (v/v) fetal bovine serum and antibiotics. ACHN and HEK293T cells were maintained in Dulbecco's modified Eagle's medium supplemented with 10% (v/v) fetal bovine serum and antibiotics in a humidified CO2 incubator. The growth inhibitory activities of compounds toward HT-29 cells were determined by [^3H]-TdR incorporation for the last 6 h of a 3-day culture period. […] The lysed cells were then homogenized by 20 strokes of a loose-fitting Dounce homogenizer and centrifuged for 6 min at 4,300×g to separate the nuclei from the cytoplasmic fraction. The cytoplasmic fraction was ultracentrifuged for 1 h at 150,000×g and the supernatant was dialyzed against a buffer containing 20 mM HEPES (pH 7.9), 20% (v/v) glycerol, 0.1 M KCl, 0.2 mM EDTA, 0.5 mM PMSF and 0.5 mM DTT for 5 h at 4°C. After centrifugation for 20 min at 15,000×g, the supernatant was collected as the cytosolic fraction.

[3] = system: HT-29 cells; assay: Western blot of MEK and ERK phosphorylation in HT-29 cells; assay type: cell-based, human; conditions: for MEK phosphorylation status after pulse treatment: 2 h treatment then washout
[4] = system: ACHN cells; assay: Western blot of MEK and ERK phosphorylation in ACHN cells; assay type: cell-based, human; conditions: ACHN cells (K-Ras mutated, B-Raf unmutated), 24 h
Procedure: (§1) Cultured cells were treated with various compounds and then lysed in lysis buffer (50 mM Tris-HCl pH 7.4, 150 mM NaCl, 1 mM EGTA, 1 mM Na3Vo4, 1% Triton X-100 and EDTA-free protease inhibitor cocktail). The cell lysates were collected and centrifuged, and the supernatants were subjected to SDS-PAGE. After the electrophoresis, the proteins were transferred onto PVDF membranes at 1 mA/cm^2 for 1 h. The membranes were incubated in blocking solution (Blockace; Nacalai Tesque, Kyoto, Japan) and washed with PBS containing 0.1% Tween 20 (PBS/T). The membranes were then incubated with the primary antibody, washed three times with PBS/T and incubated with the secondary antibody. After washing with PBS/T, the membranes were incubated with ECL-Plus or ECL-Advanced western blot reagents (GE Healthcare, Little Chalfont, Buckinghamshire, UK) for 5 min, exposed to ECL Hyperfilm and visualized using a LAS3000 imager (Fujifilm).

[5] = system: HT-29 cells and ACHN cells; assay: Western blot of downstream signaling molecules (c-Myc, cyclin D1, p15INK4b, p27KIP1); assay type: cell-based, human; conditions: 24 h treatment
Procedure: as §1
Supplemental Table: Identif ied Peptide Sequences of 46 kDa Proteins.
ACCESSION Start - End Obsrved Mr(expt) Mr(calc) Sequence
Supp lemental Figure: Alterations of downstream signaling molecules in cancer cells by
(A, B) HT-29 cells (A) and ACHN cells (B) were treated with the
indicated concentrations of each compound for 24 h,same as the experiment of F ig u re 3A. And
the cell lysates were analyzed by western blotting using antibodies specific to c-M yc (Upstate […]

[6] = system: Raf kinase; assay: Raf kinase activity, phosphorylation of MBP; conditions: for phosphorylation of the Raf kinase substrate MBP: at concentrations below 10 μM
[7] = biological target: T1, p-MEK1 (Homo sapiens, UniProt Q02750); assay: Kinetic (double-reciprocal) analysis of MEK inhibition in the MEK-ERK reaction; assay type: biochemical; conditions: p-MEK-ATP complex, double-reciprocal plots vs ATP
T1 construct: purchased Upstate Technology (Waltham, MA)

[8] = system: various cancer cells; assay: Western blot of MEK and ERK phosphorylation in various cancer cell lines; assay type: cell-based; conditions: 2 h
Procedure: as §1

[9] = parameters: method as in PMID 22805291; conditions: orally administered, cancer patients, phase I study; cited from earlier work
[10] = cited from earlier work
[11] = biological target: B-Raf (Homo sapiens, UniProt P15056, V600E); assay: biochemical
[12] = biological target: c-Raf (Homo sapiens, UniProt P04049); assay: Raf/MBP kinase assay, c-Raf
[13] = biological target: Inactive u-MEK (K97R) (Homo sapiens, UniProt Q02750, K97R); assay: Temperature-dependent CD analysis of u-MEK; conditions: 10 μM compound, 3 μM u-MEK; u-MEK alone 50.2 °C

Chain of c-Raf (P04049 306-648): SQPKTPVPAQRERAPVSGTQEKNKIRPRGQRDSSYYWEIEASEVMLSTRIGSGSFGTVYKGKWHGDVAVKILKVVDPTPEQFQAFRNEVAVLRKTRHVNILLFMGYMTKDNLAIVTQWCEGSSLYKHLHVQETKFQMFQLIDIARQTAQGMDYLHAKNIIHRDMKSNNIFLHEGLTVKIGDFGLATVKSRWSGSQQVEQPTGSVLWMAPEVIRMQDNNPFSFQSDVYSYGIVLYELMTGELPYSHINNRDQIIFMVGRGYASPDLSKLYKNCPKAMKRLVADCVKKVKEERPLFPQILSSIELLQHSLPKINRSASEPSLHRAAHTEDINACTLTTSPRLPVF
Chain of B-Raf (P15056 whole entry V600E): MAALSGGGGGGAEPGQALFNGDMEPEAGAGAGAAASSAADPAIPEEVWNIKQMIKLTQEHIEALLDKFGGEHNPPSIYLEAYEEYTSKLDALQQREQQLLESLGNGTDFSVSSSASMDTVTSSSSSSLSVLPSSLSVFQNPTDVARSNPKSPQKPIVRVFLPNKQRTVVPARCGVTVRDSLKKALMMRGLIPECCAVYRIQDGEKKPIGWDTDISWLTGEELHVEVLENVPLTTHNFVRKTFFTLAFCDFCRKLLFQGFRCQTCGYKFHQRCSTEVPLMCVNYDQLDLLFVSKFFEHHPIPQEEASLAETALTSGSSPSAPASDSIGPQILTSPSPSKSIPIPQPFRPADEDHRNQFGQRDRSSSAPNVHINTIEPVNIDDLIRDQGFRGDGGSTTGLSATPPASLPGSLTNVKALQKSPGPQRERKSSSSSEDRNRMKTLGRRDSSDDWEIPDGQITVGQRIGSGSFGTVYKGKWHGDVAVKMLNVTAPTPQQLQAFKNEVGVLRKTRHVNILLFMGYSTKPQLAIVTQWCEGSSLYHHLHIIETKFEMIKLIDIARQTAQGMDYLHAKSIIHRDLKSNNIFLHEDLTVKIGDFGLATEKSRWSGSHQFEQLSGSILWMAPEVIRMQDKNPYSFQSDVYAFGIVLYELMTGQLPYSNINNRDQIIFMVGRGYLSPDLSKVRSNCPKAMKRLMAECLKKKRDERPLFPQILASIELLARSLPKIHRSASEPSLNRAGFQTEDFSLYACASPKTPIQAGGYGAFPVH

SMILES: N#CC(=C(/N)Sc1ccccc1N)/C(C#N)=C(\N)Sc1ccccc1N [U0126, reference compound]
concentration needed to clearly compete with JTP-74100-immobilized resin for binding to MEK [1]: 100 µM

SMILES: O=C(NOC[C@H](O)CO)c1ccc(F)c(F)c1Nc1ccc(I)cc1F [PD0325901, reference compound]
IC50 [2]: 3.4 nM
time for p-ERK level to return to nearly normal level after removal ([3]; 100 nM for 2 h then washout): ≤ 1 h
MEK phosphorylation status after pulse treatment [3]: did not affect the MEK phosphorylation status
ERK phosphorylation ([3]; 24 h): inhibited ERK phosphorylation
accumulation of p-MEK [4]: induced significant accumulation of p-MEK
concentration at which accumulation of p15INK4b and p27KIP1 and decrease of c-Myc and Cyclin D1 were observed [5]: 10 nM
phosphorylation of the Raf kinase substrate MBP [6]: not inhibited

SMILES: CC(=O)Nc1cccc(-n2c(=O)n(C3CC3)c(=O)c3c(Nc4ccc(I)cc4F)n(C)c(=O)c(C)c32)c1 [JTP-74057]
IC50 [2]: 0.57 nM
Ki' (MEK/ATP vs. compound) [7]: 290 ± 80 nM
time at which p-MEK level was decreased ([3]; 10 nM): ≤ 15 min
time at which p-MEK was almost ablated ([3]; 10 nM): 30 min
MEK phosphorylation status after pulse treatment [3]: disappearance of p-MEK was sustained for a considerable period
ERK phosphorylation ([3]; 24 h): inhibited ERK phosphorylation
p-MEK level ([3]; 24 h): decreased the p-MEK level
accumulation of p-MEK [4]: did not significantly, or slightly if any, induce accumulation of p-MEK
p-MEK levels in HCT-15, LS-174T, T84 and LoVo cells ([8]; 100 nM): did not decrease or decrease to a lesser extent
p-MEK levels in HT-29, COLO-205, HCT-116, SW480 and SW620 cells ([8]; 100 nM (HT-29 10 nM)): decreased
ERK phosphorylation in various cancer cell lines ([8]; 100 nM (HT-29 10 nM), 10 cell lines): efficiently inhibited in almost all cell lines, except for COLO-320DM
concentration at which accumulation of p15INK4b and p27KIP1 and decrease of c-Myc and Cyclin D1 were observed [5]: 1 nM
t1/2 [9]: about 4 days
ERK phosphorylation in grafted cancer tissues ([10]; animals, after oral administration): inhibited ERK phosphorylation
half-life in the blood ([10]; in vivo, po): long half-life
IC50 [11]: > 10000 nM
IC50 [12]: > 10000 nM
Tm of u-MEK with compound (CD) [13]: 57.5 °C
phosphorylation of the Raf kinase substrate MBP [6]: not inhibited

SMILES: COc1ccccc1Nc1cc(=O)n(C)c2c1c(=O)n(-c1ccccc1)c(=O)n2-c1ccccc1 [JTP-65634]
IC50 [2]: > 10000 nM
concentration needed to clearly compete with JTP-74100-immobilized resin for binding to MEK [1]: > 100 µM

SMILES: CNC(=O)c1cc(Oc2ccc(NC(=O)Nc3ccc(Cl)c(C(F)(F)F)c3)cc2)ccn1 [BAY 43-9006]
concentration that inhibited Raf kinase activity ([6]; same conditions as Raf/MBP assay, data not shown): 0.1 µM

Other lines, results leading:

IC50 [2]: 2.1 nM
SMILES: CCCCC(=O)NCCC(=O)Nc1cccc(-n2c(=O)n(C3CC3)c(=O)c3c(Nc4ccc(I)cc4F)n(C)c(=O)c(C)c32)c1 [pentanoyl JTP-74100]

IC50 [2]: 840 nM
SMILES: CCCCC(=O)NCCC(=O)Nc1cccc(-n2c(=O)n(C3CC3)c(=O)c3c(Nc4ccccc4F)n(C)c(=O)c(C)c32)c1 [pentanoyl JTP-74099]

IC50 [2]: 0.39 nM
concentration needed to clearly compete with JTP-74100-immobilized resin for binding to MEK [1]: above 10 μM
SMILES: Cn1c(=O)cc(Nc2ccc(I)cc2F)c2c(=O)n(C3CC3)c(=O)n(-c3cccc(NS(C)(=O)=O)c3)c21 [JTP-70945]
